Values of other authors in US20150338392A1, “Sterile and instantly dissolvable drug membrane and method thereof for testing drug sensitivity of antineoplastic drugs” (priority 2013, published 2015).

Columns and labels:
invasive breast cancer = details: clinical, background statement
[1] = tested on: non-small cell lung cancer; details: clinical, background statement

| SMILES | invasive breast cancer patients who are not sensitive to the drug (invasive breast cancer) | patients who receive no obvious effect [1] |
| --- | --- | --- |
| COc1cccc2c1C(=O)c1c(O)c3c(c(O)c1C2=O)C[C@@](O)(C(=O)CO)C[C@@H]3O[C@H]1C[C@H](N)[C@H](O)[C@H](C)O1 [doxorubicin] | 50% |  |
| Nc1ccn([C@@H]2O[C@H](CO)[C@@H](O)C2(F)F)c(=O)n1 [Gemzar] |  | more than 60% |
